# According to US20250171744A1, “METHODS OF REPROGRAMMING SOMATIC CELLS AND MATERIALS RELATED THERETO” (CITY OF HOPE, priority 2019, published 2025):
# System: Sox2 and Oct4 (stem cell markers)
# Assay: qRT-PCR relative transcript levels of stem cell markers (FIG. 21A)
# Format: cell-based, human
# Details: cell line not given, vs control cells
# Procedure: To validate microarray results, quantitative 2-step RT-PCR was performed. One microgram of total RNA was reverse transcribed to first-strand cDNA with the Qiagen cDNA Synthesis Kit (Qiagen), and this cDNA was subsequently used as a template for quantitative PCR with gene-specific primers. The ubiquitous β-actin gene served as a control for constitutive gene expression. The quantitative RT-PCR (qRT-PCR) reactions were performed using Power Sybr Green PCR Master Mix (Thermo Fisher Scientific) on a CFX96 Touch Real-Time PCR Detection System (Bio-Rad, Hercules, CA, USA). Relative expression levels (2^−ΔCt) were calculated according to the Livak and Schmittgen method (40). Expression levels of each gene were compared with the expression level of actin.
smiles,measurement,value
"CN(Cc1cnc2nc(N)nc(N)c2n1)c1ccc(C(=O)N[C@@H](CCC(=O)O)C(=O)O)cc1 [MTX, methotrexate]",relative transcripts level of Oct4,significantly higher
same,relative transcripts level of Sox2,significantly higher
